From paper PMC6130310 (Frontiers in Molecular Neuroscience, 2018)

What was measured:
Assay in all cases: two-electrode voltage clamp, Xenopus oocytes
[1] = target: T1, zGlyRα2/ßa (Danio rerio, UniProt A0ACM8PZL4+F1R8P4); assay type: cell-based
T1 construct: gene glra2; full-length cDNAs in pCS2+, cRNAs co-injected 1:1 in Xenopus laevis oocytes; heteropentamer
Source text: two-electrode voltage clamp, Xenopus oocytes on zGlyRα2/ßa

[2] = target: T2, zGlyRα3/ßa (Danio rerio, UniProt A0A8M1PA31+A0ACM8PZL4); assay type: cell-based
T2 construct: gene glra3; full-length cDNAs in pCS2+, cRNAs co-injected 1:1 in Xenopus laevis oocytes; heteropentamer
T2 sequence (A0ACM8PZL4 23-498, one chain of several): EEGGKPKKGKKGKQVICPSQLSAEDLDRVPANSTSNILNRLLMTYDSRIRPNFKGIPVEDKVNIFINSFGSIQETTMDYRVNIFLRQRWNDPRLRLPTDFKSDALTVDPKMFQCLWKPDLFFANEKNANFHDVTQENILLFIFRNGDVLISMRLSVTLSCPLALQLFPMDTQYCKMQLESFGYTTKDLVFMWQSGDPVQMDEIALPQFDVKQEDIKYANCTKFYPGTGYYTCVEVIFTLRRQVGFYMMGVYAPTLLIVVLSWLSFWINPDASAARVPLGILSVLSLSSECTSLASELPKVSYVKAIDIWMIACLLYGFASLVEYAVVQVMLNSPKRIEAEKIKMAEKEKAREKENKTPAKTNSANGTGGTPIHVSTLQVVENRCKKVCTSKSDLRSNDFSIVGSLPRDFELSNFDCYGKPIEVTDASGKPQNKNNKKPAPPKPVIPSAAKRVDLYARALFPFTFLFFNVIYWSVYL
Source text: two-electrode voltage clamp, Xenopus oocytes on zGlyRα3/ßa

[3] = tested on: T3, zGlyRα1/ßa; assay type: cell-based, Danio rerio; details: -50 mV, pH 7.5, heteromers alpha:beta cRNA 1:1
T3 construct: gene glra1; full-length cDNAs in pCS2+, cRNAs co-injected 1:1 in Xenopus laevis oocytes; heteropentamer
Source text: two-electrode voltage clamp, Xenopus oocytes on zGlyRα1/ßa

[4] = target: T4, zGlyRα4a homomer (Danio rerio, UniProt F1RDZ6); assay type: cell-based
T4 construct: gene glra4a; full-length cDNA in pCS2+, Kozak added; cRNA in Xenopus laevis oocytes; homopentamer
T4 sequence (F1RDZ6 28-457): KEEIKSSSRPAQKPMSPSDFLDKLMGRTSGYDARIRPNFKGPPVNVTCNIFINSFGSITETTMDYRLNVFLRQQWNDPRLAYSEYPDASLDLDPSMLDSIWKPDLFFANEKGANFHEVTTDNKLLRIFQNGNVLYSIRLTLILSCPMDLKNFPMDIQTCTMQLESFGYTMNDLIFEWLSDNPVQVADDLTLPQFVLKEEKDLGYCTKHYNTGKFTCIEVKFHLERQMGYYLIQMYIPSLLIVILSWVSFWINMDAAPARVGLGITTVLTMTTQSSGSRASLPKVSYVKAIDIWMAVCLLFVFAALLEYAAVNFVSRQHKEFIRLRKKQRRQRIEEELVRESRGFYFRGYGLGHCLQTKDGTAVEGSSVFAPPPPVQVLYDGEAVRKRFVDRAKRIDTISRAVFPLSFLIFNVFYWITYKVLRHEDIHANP
Source text: two-electrode voltage clamp, Xenopus oocytes on zGlyRα4a homomer

[5] = target: T5, zGlyRα4b homomer (Danio rerio, UniProt A0A8M1P2L1); assay type: cell-based
T5 construct: gene glra4b; full-length cDNA in pCS2+, Kozak added; cRNA in Xenopus laevis oocytes; homopentamer
T5 sequence (A0A8M1P2L1 25-492): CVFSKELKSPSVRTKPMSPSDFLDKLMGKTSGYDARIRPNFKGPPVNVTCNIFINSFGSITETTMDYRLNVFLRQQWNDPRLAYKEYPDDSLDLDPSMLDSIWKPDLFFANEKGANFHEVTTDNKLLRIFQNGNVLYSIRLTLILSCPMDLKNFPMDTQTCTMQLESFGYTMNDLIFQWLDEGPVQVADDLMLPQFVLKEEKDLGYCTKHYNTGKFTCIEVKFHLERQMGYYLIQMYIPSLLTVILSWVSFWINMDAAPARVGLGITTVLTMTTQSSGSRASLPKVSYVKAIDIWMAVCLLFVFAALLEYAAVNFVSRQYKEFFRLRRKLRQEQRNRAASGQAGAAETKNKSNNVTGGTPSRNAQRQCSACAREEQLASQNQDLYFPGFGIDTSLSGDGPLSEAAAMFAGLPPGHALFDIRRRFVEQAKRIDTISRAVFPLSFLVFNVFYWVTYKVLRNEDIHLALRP
Source text: two-electrode voltage clamp, Xenopus oocytes on zGlyRα4b homomer

[6] = target: T6, zGlyRα3 homomer (Danio rerio, UniProt A0A8M1PA31); assay type: cell-based
T6 construct: gene glra3; full-length cDNA in pCS2+, Kozak added; cRNA in Xenopus laevis oocytes; homopentamer
T6 sequence (A0A8M1PA31 28-450): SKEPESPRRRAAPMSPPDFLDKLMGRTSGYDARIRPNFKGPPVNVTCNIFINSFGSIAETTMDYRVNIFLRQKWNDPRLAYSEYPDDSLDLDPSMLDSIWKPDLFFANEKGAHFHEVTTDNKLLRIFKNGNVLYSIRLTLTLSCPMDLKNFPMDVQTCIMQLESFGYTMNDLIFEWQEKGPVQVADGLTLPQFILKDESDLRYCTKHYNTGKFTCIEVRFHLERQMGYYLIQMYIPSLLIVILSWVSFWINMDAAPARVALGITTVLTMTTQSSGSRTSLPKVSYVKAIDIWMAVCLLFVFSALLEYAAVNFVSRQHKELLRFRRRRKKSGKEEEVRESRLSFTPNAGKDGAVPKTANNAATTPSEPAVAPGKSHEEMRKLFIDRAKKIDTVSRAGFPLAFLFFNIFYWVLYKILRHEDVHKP
Source text: two-electrode voltage clamp, Xenopus oocytes on zGlyRα3 homomer

[7] = target: T7, zGlyRα3/ßb (Danio rerio, UniProt A0A8M1PA31+Q6DC22); assay type: cell-based
T7 construct: gene glra3; full-length cDNAs in pCS2+, cRNAs co-injected 1:1 in Xenopus laevis oocytes; heteropentamer
T7 sequence (A0A8M1PA31 28-450): T6 sequence (A0A8M1PA31 28-450)
T7 sequence (Q6DC22 23-494): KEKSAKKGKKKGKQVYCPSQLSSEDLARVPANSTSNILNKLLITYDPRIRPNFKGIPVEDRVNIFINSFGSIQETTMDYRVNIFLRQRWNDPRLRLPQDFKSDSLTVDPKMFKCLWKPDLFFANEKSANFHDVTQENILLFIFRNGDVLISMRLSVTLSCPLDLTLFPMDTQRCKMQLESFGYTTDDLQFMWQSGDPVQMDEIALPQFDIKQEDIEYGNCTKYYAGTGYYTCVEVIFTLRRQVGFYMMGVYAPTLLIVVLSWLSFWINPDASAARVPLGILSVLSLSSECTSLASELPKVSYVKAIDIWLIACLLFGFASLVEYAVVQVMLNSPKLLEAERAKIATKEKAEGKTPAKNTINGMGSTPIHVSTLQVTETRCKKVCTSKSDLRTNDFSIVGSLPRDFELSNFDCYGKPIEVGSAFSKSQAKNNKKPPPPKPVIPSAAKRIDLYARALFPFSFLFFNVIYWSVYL
Source text: two-electrode voltage clamp, Xenopus oocytes on zGlyRα3/ßb

[8] = target: T8, zGlyRα4a/ßa (Danio rerio, UniProt A0ACM8PZL4+F1RDZ6); assay type: cell-based
T8 construct: gene glra4a; full-length cDNAs in pCS2+, cRNAs co-injected 1:1 in Xenopus laevis oocytes; heteropentamer
T8 sequence (A0ACM8PZL4 23-498, one chain of several): as the sequence (A0ACM8PZL4 23-498, one chain of several) above
Source text: two-electrode voltage clamp, Xenopus oocytes on zGlyRα4a/ßa

[9] = target: T9, zGlyRα1 homomer (Danio rerio, UniProt O93430); assay type: cell-based
T9 construct: gene glra1; full-length cDNA in pCS2+, Kozak added; cRNA in Xenopus laevis oocytes; homopentamer
T9 sequence (O93430 25-444): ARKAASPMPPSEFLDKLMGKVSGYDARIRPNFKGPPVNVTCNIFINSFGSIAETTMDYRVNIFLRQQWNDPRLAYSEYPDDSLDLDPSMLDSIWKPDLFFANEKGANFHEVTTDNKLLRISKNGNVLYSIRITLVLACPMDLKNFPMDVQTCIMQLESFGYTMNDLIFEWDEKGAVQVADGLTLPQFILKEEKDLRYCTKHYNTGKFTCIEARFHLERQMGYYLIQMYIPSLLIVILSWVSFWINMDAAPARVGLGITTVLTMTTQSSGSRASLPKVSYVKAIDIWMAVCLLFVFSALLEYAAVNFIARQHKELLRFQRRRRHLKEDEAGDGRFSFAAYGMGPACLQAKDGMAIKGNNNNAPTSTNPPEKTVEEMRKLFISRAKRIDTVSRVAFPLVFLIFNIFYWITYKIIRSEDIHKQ
Source text: two-electrode voltage clamp, Xenopus oocytes on zGlyRα1 homomer

[10] = target: T10, zGlyRα4b/ßb (Danio rerio, UniProt A0A8M1P2L1+Q6DC22); assay type: cell-based
T10 construct: gene glra4b; full-length cDNAs in pCS2+, cRNAs co-injected 1:1 in Xenopus laevis oocytes; heteropentamer
T10 sequence (A0A8M1P2L1 25-492): T5 sequence (A0A8M1P2L1 25-492)
T10 sequence (Q6DC22 23-494): T7 sequence (Q6DC22 23-494)
Source text: two-electrode voltage clamp, Xenopus oocytes on zGlyRα4b/ßb

[11] = target: T11, zGlyRα2 homomer (Danio rerio, UniProt F1R8P4); assay type: cell-based
T11 construct: gene glra2; full-length cDNA in pCS2+, Kozak added; cRNA in Xenopus laevis oocytes; homopentamer; not the earlier 'zGlyRα2' (now α4a)
T11 sequence (F1R8P4 28-449): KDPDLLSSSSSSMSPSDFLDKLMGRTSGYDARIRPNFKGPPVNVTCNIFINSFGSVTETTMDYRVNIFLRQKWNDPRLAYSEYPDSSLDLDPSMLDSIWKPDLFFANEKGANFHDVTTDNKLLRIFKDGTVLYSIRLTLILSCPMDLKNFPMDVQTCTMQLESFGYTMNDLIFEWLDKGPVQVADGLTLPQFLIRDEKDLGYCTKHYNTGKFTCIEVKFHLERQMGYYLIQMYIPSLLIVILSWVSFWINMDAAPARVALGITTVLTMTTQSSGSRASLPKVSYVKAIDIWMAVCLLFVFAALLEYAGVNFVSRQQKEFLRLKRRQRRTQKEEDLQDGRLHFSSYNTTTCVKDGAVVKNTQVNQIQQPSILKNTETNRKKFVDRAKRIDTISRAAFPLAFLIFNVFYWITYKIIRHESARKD
Source text: two-electrode voltage clamp, Xenopus oocytes on zGlyRα2 homomer

[12] = target: T12, zGlyRα4a/ßb (Danio rerio, UniProt F1RDZ6+Q6DC22); assay type: cell-based
T12 construct: gene glra4a; full-length cDNAs in pCS2+, cRNAs co-injected 1:1 in Xenopus laevis oocytes; heteropentamer
T12 sequence (F1RDZ6 28-457): T4 sequence (F1RDZ6 28-457)
T12 sequence (Q6DC22 23-494): T7 sequence (Q6DC22 23-494)
Source text: two-electrode voltage clamp, Xenopus oocytes on zGlyRα4a/ßb

[13] = tested on: T13, zGlyRα1/ßb; assay type: cell-based, Danio rerio; details: -50 mV, pH 7.5, heteromers alpha:beta cRNA 1:1
T13 construct: gene glra1; full-length cDNAs in pCS2+, cRNAs co-injected 1:1 in Xenopus laevis oocytes; heteropentamer
Source text: two-electrode voltage clamp, Xenopus oocytes on zGlyRα1/ßb

[14] = target: T14, zGlyRα2/ßb (Danio rerio, UniProt F1R8P4+Q6DC22); assay type: cell-based
T14 construct: gene glra2; full-length cDNAs in pCS2+, cRNAs co-injected 1:1 in Xenopus laevis oocytes; heteropentamer
T14 sequence (F1R8P4 28-449): T11 sequence (F1R8P4 28-449)
T14 sequence (Q6DC22 23-494): T7 sequence (Q6DC22 23-494)
Source text: two-electrode voltage clamp, Xenopus oocytes on zGlyRα2/ßb

[15] = target: T15, zGlyRα4b/ßa (Danio rerio, UniProt A0A8M1P2L1+A0ACM8PZL4); assay type: cell-based
T15 construct: gene glra4b; full-length cDNAs in pCS2+, cRNAs co-injected 1:1 in Xenopus laevis oocytes; heteropentamer
T15 sequence (A0ACM8PZL4 23-498, one chain of several): as the sequence (A0ACM8PZL4 23-498, one chain of several) above
Source text: two-electrode voltage clamp, Xenopus oocytes on zGlyRα4b/ßa

[16] = read-out: Glycine / EC50, agonist
[17] = read-out: Strychnine / IC50, competitive antagonist, block of current evoked by 200 μM glycine

T1 sequence (A0ACM8PZL4 23-498, one chain of several): as the sequence (A0ACM8PZL4 23-498, one chain of several) above

For `NCC(=O)O` [glycine], the EC50 [1] was 307 ± 30 µM, the EC50 [2] was 521 ± 52 µM and the EC50 [3, 16] was 186 ± 10 µM. For the same compound, the EC50 [4] was 200 ± 16 µM, the EC50 [5] was 134 ± 15 µM and the EC50 [6] was 125 ± 7.9 µM. The EC50 [7] was 260 ± 20 µM, the EC50 [8] was 458 ± 82 µM and the EC50 [9] was 102 ± 5.8 µM. It also gave an EC50 [10] of 221 ± 15 µM, an EC50 [11] of 138 ± 10 µM and an EC50 [12] of 404 ± 24 µM. For the same compound, the EC50 [13, 16] was 194 ± 18 µM, the EC50 [14] was 343 ± 64 µM and the EC50 [15] was 236 ± 17 µM.

`O=C1C[C@@H]2OCC=C3CN4CC[C@]56c7ccccc7N1[C@H]5[C@H]2[C@H]3C[C@H]46` [strychnine] showed an IC50 [1] of 0.292 ± 0.043 µM, an IC50 [2] of 0.083 ± 0.016 µM and an IC50 [3, 17] of 0.012 ± 0.004 µM. For the same compound, the IC50 [4] was 0.055 ± 0.012 µM, the IC50 [5] was 0.052 ± 0.011 µM and the IC50 [6] was 0.021 ± 0.008 µM. It also gave an IC50 [7] of 0.041 ± 0.0081 µM, an IC50 [8] of 0.043 ± 0.022 µM and an IC50 [10] of 0.021 ± 0.0031 µM. For the same compound, the IC50 [11] was 0.212 ± 0.037 µM, the IC50 [12] was 0.018 ± 0.0026 µM and the IC50 [13, 17] was 0.074 ± 0.017 µM. It also gave an IC50 [14] of 0.121 ± 0.016 µM and an IC50 [15] of 0.081 ± 0.016 µM.
